Data on six molecules can be found in article PMC7321161, “The Intriguing Effects of Substituents in the N-Phenethyl Moiety of Norhydromorphone: A Bifunctional Opioid from a Set of “Tail Wags Dog” Experiments” (Molecules, 2020).

“And” between values parts separate entries of the source, which are not always exact repeats. Equal values may be shown once. “Also recorded” adds a separate entry of the source.

Data set [1] has as its system squirrel monkeys. Put plainly: Operant responding (FR10 food reinforcement) in squirrel monkeys. To be noted: squirrel monkeys.
Assay in data set [2]: as above
To be noted: male, monkey, in vivo.

The nature of data set [3]: Squirrel monkey ventilation (whole-body plethysmograph, air or 5% CO2). To be noted: male, monkey, in vivo, other: injection; squirrel monkeys; dose required to decrease minute volume in 5% CO2 to 50% of baseline; read-out: ED50 Respiratory Depression. The format is in vivo, Saimiri sciureus. The method, then:
Gas (either air or a 5% CO2 in air mixture) was introduced to and extracted from the chamber at a constant flow rate of 5 L/min. Experimental sessions consisted of 4–6 consecutive 30 min cycles, each comprising a 15 min exposure to air followed by a 15 min exposure to 5% CO2. Drug effects were determined using cumulative dosing procedures, and injections were administered following each exposure to 5% CO2. Respiratory rate and tidal volume (mL/breath) were recorded over 1 min periods and were multiplied to provide minute volumes. Data from the last three minutes of each exposure to air or CO2 were averaged and used for analysis of drug effects on ventilation.

In data set [4] the test system is squirrel monkeys. Put plainly: Warm-water tail-withdrawal latency in squirrel monkeys. It is filed as in vivo, Saimiri sciureus.
Data set [5] concerns Swiss Webster mice. Put plainly: Respiration rate and arterial oxygen saturation in mice (MouseOx pulse oximeter). To be noted: for Effect on respiration rate in mice: normal air, s.c., 2i 0.01–0.1 mg/kg, morphine 10 mg/kg, AUC 6–45 min post injection, vs saline.
For data set [6], the target named is T1, rat MOR (Rattus norvegicus, UniProt P33535).
T1 construct: expressed in transfected cells; host or cells: C6 rat glioma cells, stably transfected; membranes
T1 sequence (P33535 whole entry): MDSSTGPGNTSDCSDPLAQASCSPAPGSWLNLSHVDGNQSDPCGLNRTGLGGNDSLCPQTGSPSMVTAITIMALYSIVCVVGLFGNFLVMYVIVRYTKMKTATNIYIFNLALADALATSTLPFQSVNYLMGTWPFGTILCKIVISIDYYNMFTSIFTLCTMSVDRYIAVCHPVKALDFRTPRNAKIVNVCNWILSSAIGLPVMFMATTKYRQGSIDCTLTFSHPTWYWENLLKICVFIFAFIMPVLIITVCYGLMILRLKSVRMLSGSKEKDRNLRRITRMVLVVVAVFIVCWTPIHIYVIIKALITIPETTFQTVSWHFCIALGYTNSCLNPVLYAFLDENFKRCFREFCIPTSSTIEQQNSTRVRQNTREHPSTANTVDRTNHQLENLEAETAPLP
Put plainly: Stimulation of [35S]GTPγS binding, C6 glioma cell membranes expressing MOR. The format is biochemical. To be noted: for MOR % Stimulation, [35S]GTPγS: compared to standard maximal DAMGO; for MOR activity type in the [35S]GTPγS assay: antagonist activity assumed from high MOR affinity and lack of stimulation. (GTPγS resists hydrolysis and so accumulates on activated G proteins.)

In data set [7] the target is T2, human μ-opioid receptor (OPRM1) (Homo sapiens, UniProt P35372).
T2 construct: host or cells: HitHunter CHO-K1 cells
T2 sequence (P35372 whole entry): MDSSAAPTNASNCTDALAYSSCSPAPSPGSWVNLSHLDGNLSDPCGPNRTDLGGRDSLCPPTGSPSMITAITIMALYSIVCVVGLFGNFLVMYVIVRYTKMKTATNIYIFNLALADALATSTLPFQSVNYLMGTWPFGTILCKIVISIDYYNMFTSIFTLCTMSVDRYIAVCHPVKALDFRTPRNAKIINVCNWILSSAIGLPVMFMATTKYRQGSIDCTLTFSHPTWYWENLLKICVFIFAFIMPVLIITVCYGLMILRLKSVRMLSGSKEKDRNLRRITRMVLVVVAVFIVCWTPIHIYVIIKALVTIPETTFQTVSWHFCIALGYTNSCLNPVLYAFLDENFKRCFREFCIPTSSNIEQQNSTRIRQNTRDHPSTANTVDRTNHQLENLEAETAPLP
Put plainly: cell-based. To be noted: for EC50: MOR cAMP Agonist Potency ± SEM; for Emax: OPRM1, read-out: MOR cAMP % Efficacy.

Data set [8] concerns the target T3, human KOR (Homo sapiens, UniProt P41145).
T3 construct: expressed in transfected cells; membranes
Put plainly: Stimulation of [35S]GTPγS binding, CHO cell membranes expressing KOR. It is filed as biochemical. To be noted: for KOR EC50, [35S]GTPγS: CHO cells expressing KOR, mean ± SEM, DNS = no stimulation; for KOR % Stimulation, [35S]GTPγS: compared to standard maximal U69593.

Data set [9] concerns the target T4, μ-opioid receptor (MOR) (Rattus norvegicus, UniProt P33535).
T4 construct: Frozen whole rat brains excluding cerebellum were thawed on ice; from tissue; host or cells: whole rat brain excluding cerebellum, membrane homogenate
Put plainly: Opioid receptor binding, μ sites ([3H]DAMGO), rat brain homogenate.

In data set [10] the target is T5, rat DOR (Rattus norvegicus, UniProt P33533).
T5 construct: expressed in transfected cells; host or cells: C6 rat glioma cells, stably transfected; membranes
T5 sequence (P33533 whole entry): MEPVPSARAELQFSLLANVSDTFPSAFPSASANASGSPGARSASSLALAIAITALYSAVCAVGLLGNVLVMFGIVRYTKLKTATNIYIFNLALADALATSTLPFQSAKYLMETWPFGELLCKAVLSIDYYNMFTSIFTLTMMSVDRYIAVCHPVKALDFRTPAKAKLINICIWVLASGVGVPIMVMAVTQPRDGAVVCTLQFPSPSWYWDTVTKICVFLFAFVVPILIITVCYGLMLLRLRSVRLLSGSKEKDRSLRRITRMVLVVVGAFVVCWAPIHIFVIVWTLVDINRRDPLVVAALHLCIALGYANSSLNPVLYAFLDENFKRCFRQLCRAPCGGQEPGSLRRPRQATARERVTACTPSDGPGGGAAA
Put plainly: Stimulation of [35S]GTPγS binding, C6 glioma cell membranes expressing DOR. The format is biochemical. To be noted: for EC50: DOR EC50, [35S]GTPγS, C6 cells expressing DOR, mean ± SEM; for DOR % Stimulation, [35S]GTPγS: compared to standard maximal DPDPE.

Data set [11] concerns the target T6, κ-opioid receptor (KOR) (Rattus norvegicus, UniProt P34975).
T6 construct: Frozen whole rat brains excluding cerebellum were thawed on ice; from tissue; host or cells: whole rat brain excluding cerebellum, membrane homogenate
Put plainly: Opioid receptor binding, κ sites ([3H]U69,593), rat brain homogenate. To be noted: KOR Binding (Ki), whole rat brain excluding cerebellum, [3H]U69,593; Ki ± SEM.

Data set [12] deals with T7, human κ-opioid receptor (OPRK1) (Homo sapiens, UniProt P41145).
T7 construct: host or cells: HitHunter CHO-K1 cells
T7 sequence (P41145 whole entry): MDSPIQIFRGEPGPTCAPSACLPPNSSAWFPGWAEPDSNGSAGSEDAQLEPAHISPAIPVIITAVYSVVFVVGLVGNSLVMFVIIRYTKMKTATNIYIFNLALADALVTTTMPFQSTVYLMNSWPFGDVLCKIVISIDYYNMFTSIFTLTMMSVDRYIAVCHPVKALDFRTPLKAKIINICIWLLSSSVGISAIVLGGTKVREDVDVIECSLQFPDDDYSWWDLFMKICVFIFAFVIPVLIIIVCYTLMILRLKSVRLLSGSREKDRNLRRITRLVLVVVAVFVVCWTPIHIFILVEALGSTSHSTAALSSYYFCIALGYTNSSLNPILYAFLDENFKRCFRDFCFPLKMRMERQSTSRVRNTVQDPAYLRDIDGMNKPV
Put plainly: cell-based. To be noted: for Emax: CHO-K1, read-out: KOR cAMP % Efficacy; for EC50: KOR cAMP Agonist Potency ± SEM.

Data set [13] concerns the target T8, human δ-receptor (OPRMD1) (Homo sapiens, UniProt P41143).
T8 construct: host or cells: HitHunter CHO-K1 cells
Put plainly: cell-based. It is filed as cell-based. To be noted: for Emax: CHO-K1, read-out: DOR cAMP % Efficacy; for EC50: DOR cAMP Agonist Potency ± SEM.

Data set [14] concerns the target T9, δ-opioid receptor (DOR) (Rattus norvegicus, UniProt P33533).
T9 construct: Frozen whole rat brains excluding cerebellum were thawed on ice; from tissue; host or cells: whole rat brain excluding cerebellum, membrane homogenate
Put plainly: Opioid receptor binding, δ sites ([3H]DADLE), rat brain homogenate.

The target in data set [15] is T10, human μ-opioid receptor β-arrestin-2 (Homo sapiens, UniProt P35372).
T10 construct: enzyme fragment for EFC (β-galactosidase ProLink fragment, by own knowledge of the PathHunter system); host or cells: PathHunter CHO cells
T10 sequence (P35372 whole entry, the tested form may be a part): as the sequence (P35372 whole entry) above
Put plainly: cell-based. To be noted: for Emax: read-out: MOR Mediated β-arrestin Recruitment (% Control, Emax DAMGO). For orientation: Arrestin recruitment assays detect the binding of arrestin to an activated receptor.

T8 sequence (P41143 whole entry): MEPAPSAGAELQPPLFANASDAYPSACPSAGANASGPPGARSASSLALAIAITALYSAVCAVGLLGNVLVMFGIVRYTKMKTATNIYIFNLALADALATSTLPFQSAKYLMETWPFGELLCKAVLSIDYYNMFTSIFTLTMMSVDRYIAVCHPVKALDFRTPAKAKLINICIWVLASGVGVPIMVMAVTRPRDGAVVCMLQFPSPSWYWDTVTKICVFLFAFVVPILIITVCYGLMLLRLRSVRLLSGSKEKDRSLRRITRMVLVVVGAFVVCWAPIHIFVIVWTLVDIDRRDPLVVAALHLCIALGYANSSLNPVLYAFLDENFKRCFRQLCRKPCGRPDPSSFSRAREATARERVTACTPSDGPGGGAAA
T9 sequence (P33533 whole entry): as the sequence (P33533 whole entry) above
T4 sequence (P33535 whole entry): as the sequence (P33535 whole entry) above
T3 sequence (P41145 whole entry): as the sequence (P41145 whole entry) above
T6 sequence (P34975 whole entry): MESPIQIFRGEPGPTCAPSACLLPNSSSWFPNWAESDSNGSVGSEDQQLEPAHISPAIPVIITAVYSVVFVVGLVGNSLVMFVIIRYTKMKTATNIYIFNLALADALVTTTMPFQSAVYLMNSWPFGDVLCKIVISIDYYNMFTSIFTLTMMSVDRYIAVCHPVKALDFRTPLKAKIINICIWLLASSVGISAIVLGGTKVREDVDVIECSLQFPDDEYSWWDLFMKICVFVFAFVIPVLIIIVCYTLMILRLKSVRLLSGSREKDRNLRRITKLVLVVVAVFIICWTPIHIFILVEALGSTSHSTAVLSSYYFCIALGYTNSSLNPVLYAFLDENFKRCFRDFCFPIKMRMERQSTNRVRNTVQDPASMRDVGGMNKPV

As usually defined, the ED50 is the dose that gives a 50% effect, or the effect in half of the subjects. As for `CN1CC[C@]23c4c5ccc(O)c4O[C@H]2[C@@H](O)C=C[C@H]3[C@H]1C5` [Morphine, reference compound], in data set [1], the “Behavioral impairment (decreases in operant performance, reinforcers obtained)” value is “dose-related behavioral impairment”. Moreover, the ED50 in data set [2] is 1.3 mg/kg; in data set [3], 1.06 mg/kg; in [4] (Saimiri, in Primates, dose required to increase tail withdrawal latency to 5 s, read-out: ED50 Antinociception (52 °C)) it was 0.14 mg/kg. Moreover, the “Antinociceptive effect, tail withdrawal latency at 50, 52 and 55 °C” value in data set [4] (cumulative doses) was “full antinociceptive effects at all three water temperatures”. Further, the “Effect on oxygen saturation (SpO2) in mice” value in [5] (6 min to 45 min post-injection, data not shown) is “neither morphine nor 2i had any effect”. Also, the “Effect on respiration rate in mice” value in [5] is recorded as “significantly reduced respiratory rate”; in data set [5] (listed as morphine), “significantly reduced; also recorded: significantly decreased respiratory rate”.

The term EC50 denotes the concentration that produces a half-maximal response. The Ki is the dissociation constant of the complex between target and ligand, obtained from inhibition or displacement. Turning to `O=C1CCC2C3Cc4ccc(O)c5c4[C@@]2(CCN3CCc2cccc(F)c2)[C@H]1O5` (stereo partly drawn) [Compound 2f, (7aR,12bS)-9-Hydroxy-3-(3-fluorophenethyl)-2,3,4,4a,5,6-hexahydro-1H-4,12-methanobenzofuro[3,2-e]-isoquinolin-7(7aH)-one], the EC50 in data set [6] is 2.4 ± 0.3 nM; in data set [7] it was 0.06 nM; in [10], 54.1 ± 4.7 nM; in [12], 56.5 nM; in [13], 1.64 nM; in [15], 6.2 nM. Moreover, in [6], the “MOR % Stimulation, [35S]GTPγS” value was found to be 56.8 ± 7.5%. In addition, the Emax is 102% in [7], 58% in data set [12], 96.9% in data set [13] and 40.3% in [15]. The “KOR EC50, [35S]GTPγS” value in data set [8] is recorded as “DNS”. The Ki in [9] came out at 0.49 ± 0.07 nM; in [11], 30.2 ± 2.3 nM; in [14], 4.48 ± 0.43 nM. In data set [10], the “DOR % Stimulation, [35S]GTPγS” value is recorded as 86.7 ± 8.0%. Moreover, the “Bias Factor” value in [15] was determined as 1.94.

For `O=C1CCC2C3Cc4ccc(O)c5c4[C@@]2(CCN3CCc2ccc(F)cc2)[C@H]1O5` (stereo partly drawn) [Compound 2e, (7aR,12bS)-9-Hydroxy-3-(4-fluorophenethyl)-2,3,4,4a,5,6-hexahydro-1H-4,12-methanobenzofuro[3,2-e]-isoquinolin-7(7aH)-one], the EC50 in [6] worked out at 2.5 ± 0.3 nM; in data set [7], 0.17 nM; in [10] it was 64.2 ± 9.9 nM; in data set [12], 19.9 nM; in data set [13], 2.58 nM; in data set [15], 15.5 nM. In addition, in data set [6], the “MOR activity type in the [35S]GTPγS assay” value (shortened to “MOR activity type”) is reported as “potent partial MOR agonist”. For the same molecule, in data set [6], the “MOR % Stimulation, [35S]GTPγS” value stood at 42.6 ± 2.9%. Further, the Emax in data set [7] is 101%; in data set [12], 80%; in data set [13], 98.1%; in data set [15] it was 45.8%. Besides, the “KOR EC50, [35S]GTPγS” value in [8] was “DNS”. For the same molecule, the Ki is 0.87 ± 0.1 nM in data set [9], 44.3 ± 6 nM in [11] and 13.4 ± 0.9 nM in data set [14]. Also, the “DOR activity type in the [35S]GTPγS assay” value in data set [10] is “weak partial DOR agonist”. In data set [15], the “Bias Factor” value is 1.39.

For the molecule `Cc1ccc(CCN2CC[C@]34c5c6ccc(O)c5O[C@H]3C(=O)CCC4C2C6)cc1` (stereo partly drawn) [Compound 2c, (7aR,12bS)-9-Hydroxy-3-(4-methylphenethyl)-2,3,4,4a,5,6-hexahydro-1H-4,12-methanobenzofuro[3,2-e]-isoquinolin-7(7aH)-one], the EC50 is 1.9 ± 0.7 nM in data set [6]; 0.08 nM in data set [7]; 38.1 ± 10.6 nM in [8]; 23.1 ± 6.9 nM in [10]; 8.7 nM and 8.71 nM in data set [12]; 1 nM in data set [13]. In data set [15], this molecule came in with an EC50 of 5.6 nM. Moreover, in [6], the “MOR activity type” value is recorded as “potent partial MOR agonist”. The “MOR % Stimulation, [35S]GTPγS” value in data set [6] was determined as 55.6 ± 2.1%. For the same molecule, the Emax is 102% in data set [7], 99.4% in [12], 95% in data set [13] and 46.5% in data set [15]. For the same molecule, in [8], the “KOR % Stimulation, [35S]GTPγS” value worked out at 31.4 ± 4.2%. Besides, the inhibition constant (Ki) in data set [9] came to 0.86 ± 0.12 nM; in data set [11], 44 ± 3.8 nM; in data set [14] it was 6.34 ± 0.65 nM. Also, in data set [10], the “DOR % Stimulation, [35S]GTPγS” value was 95% and 95.4 ± 3.8%. Further, the “Bias Factor” value in data set [15] stood at 1.12.

For `O=C1CCC2C3Cc4ccc(O)c5c4[C@@]2(CCN3CCc2ccccc2F)[C@H]1O5` (stereo partly drawn) [Compound 2g, (7aR,12bS)-9-Hydroxy-3-(2-fluorophenethyl)-2,3,4,4a,5,6-hexahydro-1H-4,12-methanobenzofuro[3,2-e]-isoquinolin-7(7aH)-one], the EC50 in data set [6] was found to be 2.1 ± 0.7 nM; in data set [7] it was 0.01 nM; in data set [10], 92.7 ± 17 nM; in data set [12], 19.9 nM; in [13] it was 0.26 nM; in [15], 1.7 nM. The “MOR % Stimulation, [35S]GTPγS” value in [6] is reported as 100 ± 0.3%. Besides, the Emax in data set [7] is 101%; in [12], 74%; in [13], 93.8%; in [15], 73.2%. Further, the “KOR EC50, [35S]GTPγS” value in data set [8] was “DNS”. Further, the Ki is 0.32 ± 0.04 nM in data set [9], 23.2 ± 2.8 nM in data set [11] and 3.57 ± 0.49 nM in [14]. Moreover, the “DOR % Stimulation, [35S]GTPγS” value in data set [10] is given as 83.0 ± 3.3%. Moreover, the “Bias Factor” value in data set [15] is reported as 1.37.

For `COc1ccc(CCN2CC[C@]34c5c6ccc(O)c5O[C@H]3C(=O)CCC4C2C6)cc1` (stereo partly drawn) [Compound 2d, (7aR,12bS)-9-Hydroxy-3-(4-methoxyphenethyl)-2,3,4,4a,5,6-hexahydro-1H-4,12-methanobenzofuro[3,2-e]-isoquinolin-7(7aH)-one], the “MOR EC50, [35S]GTPγS” value in data set [6] (C6 cells expressing MOR, mean ± SEM, DNS = no stimulation) was “DNS”. Moreover, in data set [6], the “MOR activity type” value is listed as “MOR antagonist”. The EC50 was 0.13 nM in data set [7]; 5.9 ± 1.7 nM in [8]; 33.6 ± 6.4 nM in data set [10]; 7.4 nM and 7.38 nM in [12]; 2.7 nM and 2.71 nM in data set [13]; 11.2 nM in data set [15]. Besides, the Emax in data set [7] was 103%; in [12] it was 96.2%; in [13], 97.5%; in data set [15] it was 23%. The “KOR % Stimulation, [35S]GTPγS” value in data set [8] is 21.8% and 21.8 ± 0.8%. For the same molecule, the values for the Ki in [9], in data set [11] and in data set [14] were 0.67 ± 0.05 nM, 26.3 ± 1.9 nM and 5.43 ± 0.47 nM, respectively. In addition, in [10], the “DOR % Stimulation, [35S]GTPγS” value was 49% and 48.9 ± 3.2%. The “Bias Factor” value in data set [15] was determined as 2.69.
